Reference: ChEMBL document CHEMBL5365402, “Phytochemical investigation of Asarum sieboldii var. seoulense and the phenotypic profiles of its constituents against a Parkinson's Disease olfactory cell line” (Bioorg Med Chem Lett, 2023)
The source made the active and inactive calls. The rule behind the calls is not given here.

What was measured:
Assay type in all cases: functional, subcellular
[1] = tested on: ONS; test: Anti-parkinson's disease activity in human ONS cells assessed as alpha-tubulin marker intensity in cytoplasm at 5 uM by heat map analysis
[2] = tested on: ONS; test: Anti-parkinson's disease activity in human ONS cells assessed as alpha-tubulin marker intensity in inner region of cytoplasm at 5 uM by heat map analysis
[3] = tested on: ONS; test: Anti-parkinson's disease activity in human ONS cells assessed as alpha-tubulin marker intensity in outer region of cytoplasm at 5 uM by heat map analysis
[4] = tested on: ONS; test: Anti-parkinson's disease activity in human ONS cells assessed as lysosome marker intensity in cytoplasm at 5 uM by heat map analysis
[5] = tested on: ONS; test: Anti-parkinson's disease activity in human ONS cells assessed as lysosome marker intensity in outer region of cytoplasm at 5 uM by heat map analysis
[6] = tested on: ONS; test: Anti-parkinson's disease activity in human ONS cells assessed as lysosome marker intensity in inner region of cytoplasm at 5 uM by heat map analysis
[7] = tested on: ONS; test: Anti-parkinson's disease activity in human ONS cells assessed as early endosome marker intensity in cytoplasm at 5 uM by heat map analysis
[8] = tested on: ONS; test: Anti-parkinson's disease activity in human ONS cells assessed as early endosome marker intensity in outer region of cytoplasm at 5 uM by heat map analysis
[9] = tested on: ONS; test: Anti-parkinson's disease activity in human ONS cells assessed as early endosome marker intensity in inner region of cytoplasm at 5 uM by heat map analysis
[10] = tested on: ONS; test: Anti-parkinson's disease activity in human ONS cells assessed as negative mitochondrial marker intensity in cytoplasm at 5 uM by heat map analysis
[11] = tested on: ONS; test: Anti-parkinson's disease activity in human ONS cells assessed as negative mitochondrial marker intensity in outer region of cytoplasm at 5 uM by heat map analysis
[12] = tested on: ONS; test: Anti-parkinson's disease activity in human ONS cells assessed as negative mitochondrial marker intensity in inner region of cytoplasm at 5 uM by heat map analysis
[13] = tested on: ONS; test: Anti-parkinson's disease activity in human ONS cells assessed as LC3B marker intensity in cytoplasm at 5 uM by heat map analysis
[14] = tested on: ONS; test: Anti-parkinson's disease activity in human ONS cells assessed as LC3B marker intensity in outer region of cytoplasm at 5 uM by heat map analysis
[15] = tested on: ONS; test: Anti-parkinson's disease activity in human ONS cells assessed as LC3B marker intensity in inner region of cytoplasm at 5 uM by heat map analysis

Structure (SMILES) | Activity [1] | Activity [2] | Activity [3] | Activity [4] | Activity [5] | Activity [6] | Activity [7] | Activity [8] | Activity [9] | Activity [10] | Activity [11] | Activity [12] | Activity [13] | Activity [14] | Activity [15]
C=CCc1cc(OC)c(OC)c(OC)c1 | Active | Active | Active | Active | Active | Active | Active | Active | Active |  |  |  |  |  | 
C=CCc1cc(OC)c(O)c(OC)c1 | Active | Active | Active | Active | Active | Active | Active | Active | Active |  |  |  |  |  | 
C/C=C/C=C\CC/C=C/C=C/C(=O)NCC(C)C |  |  |  |  |  |  |  |  |  | Active | Active | Active | Active | Active | Active
COc1cc(/C=C/C(=O)O)ccc1O | Active | Active | Active | Active | Active | Active | Active | Active | Active |  |  |  |  |  | 
CCC(=O)c1cc(OC)c(O)cc1O | Active | Active | Active | Active | Active | Active | Active | Active | Active |  |  |  |  |  | 
C=CCc1cc2c(cc1OC)OCO2 | Active | Active | Active | Active | Active | Active | Active | Active | Active |  |  |  |  |  | 
O=C(O)c1ccc(O)cc1 | Active | Active | Active | Active | Active | Active | Active | Active | Active |  |  |  |  |  | 
CCC(=O)c1cc2c(cc1OC)OCO2 |  |  |  | inactive | inactive | inactive | inactive | inactive | inactive | inactive | inactive | inactive |  |  | 
c1cc2c(cc1[C@H]1OC[C@H]3[C@@H]1CO[C@H]3c1ccc3c(c1)OCO3)OCO2 | Active | Active | Active | Active | Active | Active | Active | Active | Active |  |  |  |  |  | 
CCC(=O)c1ccc2c(c1)OCO2 | Active | Active | Active | Active | Active | Active | Active | Active | Active |  |  |  |  |  | 
COc1cc([C@H]2OC[C@H]3[C@@H]2CO[C@H]3c2ccc3c(c2)OCO3)ccc1O |  |  |  | inactive | inactive | inactive | inactive | inactive | inactive | inactive | inactive | inactive |  |  | 
C/C=C/C=C/CC/C=C/C=C/C(=O)NCC(C)C |  |  |  |  |  |  |  |  |  | Active | Active | Active | Active | Active | Active
c1cc2c(cc1[C@H]1OC[C@H]3[C@@H]1CO[C@@H]3c1ccc3c(c1)OCO3)OCO2 |  |  |  | inactive | inactive | inactive | inactive | inactive | inactive | inactive | inactive | inactive |  |  | 
COc1cc([C@H]2OC[C@H]3[C@@H]2CO[C@@H]3c2ccc3c(c2)OCO3)ccc1O |  |  |  |  |  |  |  |  |  | Active | Active | Active | Active | Active | Active
COc1cc(C(=O)O)ccc1O | Active | Active | Active | Active | Active | Active | Active | Active | Active |  |  |  |  |  | 
C/C=C\C=C/CC/C=C/C=C/C(=O)NCC(C)C | Active | Active | Active | Active | Active | Active | Active | Active | Active |  |  |  |  |  | 
CCC(=O)c1cc2c(cc1O)OCO2 |  |  |  | inactive | inactive | inactive | inactive | inactive | inactive | inactive | inactive | inactive |  |  | 
O=C(O)/C=C/c1ccc(O)cc1 |  |  |  | inactive | inactive | inactive | inactive | inactive | inactive | inactive | inactive | inactive |  |  | 
C/C=C\CC/C=C/C=C/C(=O)NCC(C)C | Active | Active | Active | Active | Active | Active | Active | Active | Active |  |  |  |  |  | 
